Experimental data reported in patent US20090215857A1 (Pfizer Products Inc., priority 2005, published 2009).
Structures can show the parent of a compound that is named as a salt.

target: T1, human serotonin transporter (Homo sapiens, UniProt P31645); assay: hSERT receptor binding ([125I]-RTI-55 radioligand); conditions: membranes of HEK-293 cells transfected with human serotonin transporter cDNA; 50 pM [125I]-RTI-55; IC50 converted by Cheng-Prusoff; read-out: SERT Ki
T1 construct: expressed in transfected cells; host or cells: HEK-293
T1 sequence (P31645 whole entry): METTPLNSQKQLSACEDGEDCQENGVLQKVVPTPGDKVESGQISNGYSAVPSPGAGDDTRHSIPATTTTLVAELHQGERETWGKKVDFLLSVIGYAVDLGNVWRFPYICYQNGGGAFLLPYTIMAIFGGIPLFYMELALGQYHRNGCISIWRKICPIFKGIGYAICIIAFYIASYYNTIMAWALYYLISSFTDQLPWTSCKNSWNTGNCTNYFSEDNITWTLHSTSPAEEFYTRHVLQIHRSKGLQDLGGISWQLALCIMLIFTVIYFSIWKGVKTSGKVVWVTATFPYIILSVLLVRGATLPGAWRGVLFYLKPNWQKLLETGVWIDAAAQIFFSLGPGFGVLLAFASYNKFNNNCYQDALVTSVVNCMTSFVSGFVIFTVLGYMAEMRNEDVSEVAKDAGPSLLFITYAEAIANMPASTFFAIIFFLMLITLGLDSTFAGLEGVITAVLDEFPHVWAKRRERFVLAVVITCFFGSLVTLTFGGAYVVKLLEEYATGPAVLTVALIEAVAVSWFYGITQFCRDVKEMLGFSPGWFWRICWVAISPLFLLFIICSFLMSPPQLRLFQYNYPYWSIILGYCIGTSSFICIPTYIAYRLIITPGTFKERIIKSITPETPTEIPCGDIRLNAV
Procedure: (§1) Cell pastes of HEK-293 cells transfected with a human serotonin transporter cDNA were prepared. The cell pastes were resuspended in 400 to 700 ml of Krebs-HEPES assay buffer (25 mM HEPES, 122 mM NaCl, 3 mM KCl, 1.2 mM MgSO4, 1.3 mM CaCl2, and 11 mM glucose, pH 7.4) with a Polytron homogenizer at Setting 7 for 30 seconds. Aliquots of membranes (˜2.5 mg/ml protein) were stored in liquid nitrogen until used.
Assays were set up in FlashPlates pre-coated with 0.1% PEI in a total volume of 250 μl containing: test compound (10^−5M to 10^−12M), cell membranes, and 50 pM [^125I]-RTI-55 (Perkin Elmer, NEX-272; specific activity 2200 Ci/mmol). The reaction was incubated and gently agitated for 90 minutes at room temperature, and terminated by removal of assay volume. Plates were covered, and bound [^125I]-RTI-55 was determined using a Wallac Trilux Beta Plate Counter. Test compounds were run in duplicate, and specific binding was defined as the difference between binding in the presence and absence of 10 μM citalopram.
Excel and GraphPad Prism software were used for data calculation and analysis. IC50 values were converted to Ki values using the Cheng-Prusoff equation.

Ki | SMILES
12 nM | Fc1ccc(-c2ccccc2CO[C@H]2CCNC2)cc1F [Example A-5, (S)-3-(3′-4′-Difluoro-biphenyl-2-ylmethyloxy)-pyrrolidine hydrochloride]
20.5 nM | Fc1ccc(-c2ccccc2CO[C@H]2CCNC2)cc1 [Example A-8, (S)-3-(4′-Fluoro-biphenyl-2-ylmethoxy)-pyrrolidine maleate]
174 nM | Fc1ccc(-c2ccccc2F)c(CO[C@H]2CCNC2)c1 [Example A-9, (S)-3-(4,2′-Difluoro-biphenyl-2-ylmethoxy)-pyrrolidine fumarate]
54 nM | Fc1ccc(-c2ccccc2CO[C@@H]2CCNC2)cc1F [Example A-13, (R)-3-(3′,4′-Difluoro-biphenyl-2-ylmethoxy)-pyrrolidine fumarate]
185 nM | Fc1cccc(-c2ccccc2CO[C@@H]2CCNC2)c1F [Example A-15, (R)-3-(2′,3′-Difluoro-biphenyl-2-ylmethoxy)-pyrrolidine fumarate]
436 nM | Fc1ccccc1-c1ccccc1CO[C@@H]1CCNC1 [Example A-16, (R)-3-(2′-Fluoro-biphenyl-2-ylmethoxy)-pyrrolidine fumarate]
313 nM | Fc1ccc(-c2ccccc2CO[C@@H]2CCNC2)c(F)c1 [Example A-20, (R)-3-(2′,4′-Difluoro-biphenyl-2-ylmethoxy)-pyrrolidine fumarate]
102 nM | Fc1ccc(-c2cc(F)ccc2CO[C@H]2CCNC2)c(F)c1 [Example A-23, (S)-(5,2′,4′-Trifluoro-biphenyl-2-ylmethoxy)-pyrrolidine hydrochloride]
232 nM | Fc1ccc(CO[C@H]2CCNC2)c(-c2cccc(F)c2F)c1 [Example A-24, (S)-(5,2′,3′-Trifluoro-biphenyl-2-ylmethoxy)-pyrrolidine hydrochloride]
152 nM | Fc1ccc(CO[C@H]2CCNC2)c(-c2ccccc2F)c1 [Example A-25, (S)-(5,2′-Difluoro-biphenyl-2-ylmethoxy)-pyrrolidine hydrochloride]
622 nM | Fc1cccc(-c2c(F)cccc2CO[C@H]2CCNC2)c1F [Example A-26, (S)-3-(6,2′,3′-Trifluoro-biphenyl-2-ylmethoxy)-pyrrolidine hydrochloride]
142 nM | Fc1cc(CO[C@H]2CCNC2)c(-c2cccc(F)c2F)cc1F [Example A-31, (3S)-3-[(2′,3′,4,5-tetrafluorobiphenyl-2-yl)methoxy]pyrrolidine fumarate]
758 nM | Fc1ccccc1-c1c(F)cccc1CO[C@H]1CCNC1 [Example A-32, (3S)-3-[(2′,6-difluorobiphenyl-2-yl)methoxy]pyrrolidine hydrochloride]
99.7 nM | Fc1cccc(-c2cccc(F)c2CO[C@H]2CCNC2)c1F [Example A-33, (3S)-3-[(2′,3,3′-trifluorobiphenyl-2-yl)methoxy]pyrrolidine fumarate]
439 nM | Fc1ccc(-c2c(F)cccc2CO[C@H]2CCNC2)c(F)c1 [Example A-34, (3S)-3-[(2′,4′,6-trifluorobiphenyl-2-yl)methoxy]pyrrolidine hydrochloride]
5650 nM | Fc1ccc(-c2ncccc2CO[C@H]2CCNC2)c(F)c1 [Example B-1, (S)-2-(2,4-Difluoro-phenyl)-3-(pyrrolidin-3-yloxymethyl)-pyridine fumarate]
108 nM | Fc1ccc(F)c(-c2cccnc2CO[C@H]2CCNC2)c1 [Example C-1, (S)-3-(2,5-Difluoro-phenyl)-2-(pyrrolidin-3-yloxymethyl)-pyridine fumarate]
71.6 nM | Fc1ccc(Cl)cc1-c1ccccc1CO[C@H]1CCNC1 [Example D-9, (S)-3-(5′-Chloro-2′-fluoro-biphenyl-2-ylmethoxy)-pyrrolidine]

The remaining lines, values behind:

SMILES | Ki
Cc1ccc(-c2ccccc2CO[C@H]2CCNC2)cc1 [Example A-2, (S)-3-(4′-Methyl-biphenyl-2-ylmethoxy)-pyrrolidine hydrochloride] | 93.3 nM
c1ccc(-c2ccccc2CO[C@H]2CCNC2)cc1 [Example A-7, (S)-3-(Biphenyl-2-ylmethoxy)-pyrrolidine hydrochloride] | 34.5 nM
COc1ccc(-c2ccccc2CO[C@H]2CCNC2)cc1C [Example A-10, (S)-3-(4′-Methoxy-3′-methyl-biphenyl-2-ylmethoxy)-pyrrolidine fumarate] | 116 nM
Fc1ccc(-c2ccccc2CO[C@H]2CCNC2)cc1Cl [Example A-11, (S)-3-(3′-Chloro-4′-fluoro-biphenyl-2-ylmethoxy)-pyrrolidine hydrochloride] | 10.3 nM
c1ccc(-c2ccccc2CO[C@@H]2CCNC2)cc1 [Example A-14, (R)-3-(Biphenyl-2-ylmethoxy)-pyrrolidine hydrochloride] | 204 nM
CC(C)Oc1ccccc1-c1ccccc1CO[C@H]1CCNC1 [Example A-19, (S)-3-(2′-Isopropoxy-biphenyl-2-ylmethoxy)-pyrrolidine fumarate] | 752 nM
CSc1ccccc1-c1ccccc1CO[C@H]1CCNC1 [Example A-21, (S)-3-(2′-Methylsulfanyl-biphenyl-2-ylmethoxy)-pyrrolidine hydrochloride] | 307 nM
COc1ccc(F)cc1-c1ccccc1CO[C@H]1CCNC1 [Example A-22, fumarate] | 136 nM
c1cncc(-c2ccccc2CO[C@H]2CCNC2)c1 [Example A-27, (S)-3-[2-(Pyrrolidin-3-yloxymethyl)-phenyl]-pyridine hydrochloride] | 211 nM
c1ccc(-c2ccncc2)c(CO[C@H]2CCNC2)c1 [Example A-28, (S)-4-[2-(Pyrrolidin-3-yloxymethyl)-phenyl]-pyridine hydrochloride] | 1760 nM
COc1ccc(-c2ccccc2CO[C@H]2CCNC2)cn1 [Example A-29, (S)-2-Methoxy-5-[2-(pyrrolidin-3-yloxymethyl)-phenyl]-pyridine fumarate] | 2470 nM
Fc1ccccc1-c1cccc(F)c1CO[C@H]1CCNC1 [Example A-30, (3S)-3-[(2′,3-difluorobiphenyl-2-yl)methoxy]pyrrolidine fumarate] | 247 nM
Fc1cccc(-c2ncccc2CO[C@H]2CCNC2)c1F [Example B-2, (S)-2-(2,3-Difluoro-phenyl)-3-(pyrrolidin-3-yloxymethyl)-pyridine fumarate] | 3350 nM
Fc1ccc(-c2ncccc2CO[C@H]2CCNC2)cc1F [Example B-3, (S)-2-(3,4-Difluoro-phenyl)-3-(pyrrolidin-3-yloxymethyl)-pyridine fumarate] | 1200 nM
Fc1cccc(-c2cccnc2CO[C@H]2CCNC2)c1F [Example C-2, (S)-3-(2,3-Difluoro-phenyl)-2-(pyrrolidin-3-yloxymethyl)-pyridine fumarate] | 74.6 nM
CCOc1cccc(-c2ccccc2CO[C@H]2CCNC2)c1 [Example D-1, (S)-3-(3′-Ethoxy-biphenyl-2-ylmethoxy)-pyrrolidine] | 39.2 nM
Cc1ccc(C)c(-c2ccccc2CO[C@H]2CCNC2)c1 [Example D-23, (S)-3-(2′,5′-Dimethyl-biphenyl-2-ylmethoxy)-pyrrolidine] | 154 nM
CCc1ccc(-c2ccccc2CO[C@H]2CCNC2)cc1 [Example D-39, (S)-(4′-Ethyl-biphenyl-2-ylmethoxy)-pyrrolidine] | 528 nM

target: T2, human norepinephrine transporter (Homo sapiens, UniProt P23975); assay: hNET receptor binding ([125I]-RTI-55 radioligand); conditions: membranes of HEK-293 cells transfected with human norepinephrine transporter cDNA; 50 pM [125I]-RTI-55; IC50 converted by Cheng-Prusoff; read-out: NET Ki
T2 construct: expressed in transfected cells; host or cells: HEK-293
T2 sequence (P23975 whole entry): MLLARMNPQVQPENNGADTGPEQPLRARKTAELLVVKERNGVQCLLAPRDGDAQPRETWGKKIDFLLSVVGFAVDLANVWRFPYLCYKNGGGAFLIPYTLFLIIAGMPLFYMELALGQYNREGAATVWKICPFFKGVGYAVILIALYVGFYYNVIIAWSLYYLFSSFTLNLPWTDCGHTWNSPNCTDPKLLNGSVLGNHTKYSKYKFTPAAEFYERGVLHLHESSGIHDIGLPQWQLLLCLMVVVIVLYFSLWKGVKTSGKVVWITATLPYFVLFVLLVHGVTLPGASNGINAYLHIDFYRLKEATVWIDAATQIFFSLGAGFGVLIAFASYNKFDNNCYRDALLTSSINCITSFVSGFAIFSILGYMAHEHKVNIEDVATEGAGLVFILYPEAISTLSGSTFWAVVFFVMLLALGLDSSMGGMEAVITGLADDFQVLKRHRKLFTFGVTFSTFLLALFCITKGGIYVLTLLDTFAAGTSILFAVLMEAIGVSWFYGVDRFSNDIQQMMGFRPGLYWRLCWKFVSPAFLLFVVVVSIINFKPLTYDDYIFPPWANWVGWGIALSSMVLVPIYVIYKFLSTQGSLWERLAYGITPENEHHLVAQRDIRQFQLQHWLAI
Procedure: as §1, with “norepinephrine” for “serotonin”, “setting” for “Setting”, “(5” for “(˜2.5”
The binding assay was set up in Beckman deep-well polypropylene plates with a total volume of 250 μl containing: test compound (10^−5M to 10^−12M), cell membranes, and 50 pM [^125I]-RTI-55 (Perkin Elmer, NEX-272; specific activity 2200 Ci/mmol). The reaction was incubated by gentle agitation for 90 minutes at room temperature and was terminated by filtration through Whatman GF/C filter plates using a Brandel 96-well plate harvester. Scintillation fluid (100 μl) was added to each well, and bound [^125I]-RTI-55 was determined using a Wallac Trilux Beta Plate Counter. Test compounds were run in duplicate, and specific binding was defined as the difference between binding in the presence and absence of 10 μM desipramine.
Excel and GraphPad Prism software were used for data calculation and analysis. IC50 values were converted to K, values using the Cheng-Prusoff equation.

Ki | SMILES
11.3 nM | Fc1ccc(-c2ccccc2CO[C@H]2CCNC2)cc1F [Example A-5, (S)-3-(3′-4′-Difluoro-biphenyl-2-ylmethyloxy)-pyrrolidine hydrochloride]
15.3 nM | Fc1ccc(-c2ccccc2CO[C@H]2CCNC2)cc1 [Example A-8, (S)-3-(4′-Fluoro-biphenyl-2-ylmethoxy)-pyrrolidine maleate]
17.7 nM | Fc1ccc(-c2ccccc2F)c(CO[C@H]2CCNC2)c1 [Example A-9, (S)-3-(4,2′-Difluoro-biphenyl-2-ylmethoxy)-pyrrolidine fumarate]
50 nM | Cc1cc(F)ccc1-c1ccccc1CO[C@H]1CCNC1 [Example A-12, (S)-3-(4′-Fluoro-2′-methyl-biphenyl-2-ylmethoxy)-pyrrolidine hydrochloride]
66 nM | Fc1ccc(-c2ccccc2CO[C@@H]2CCNC2)cc1F [Example A-13, (R)-3-(3′,4′-Difluoro-biphenyl-2-ylmethoxy)-pyrrolidine fumarate]
80.9 nM | Fc1cccc(-c2ccccc2CO[C@@H]2CCNC2)c1F [Example A-15, (R)-3-(2′,3′-Difluoro-biphenyl-2-ylmethoxy)-pyrrolidine fumarate]
89.9 nM | Fc1ccccc1-c1ccccc1CO[C@@H]1CCNC1 [Example A-16, (R)-3-(2′-Fluoro-biphenyl-2-ylmethoxy)-pyrrolidine fumarate]
127 nM | Fc1ccc(-c2ccccc2CO[C@@H]2CCNC2)c(F)c1 [Example A-20, (R)-3-(2′,4′-Difluoro-biphenyl-2-ylmethoxy)-pyrrolidine fumarate]
15.8 nM | Fc1ccc(-c2cc(F)ccc2CO[C@H]2CCNC2)c(F)c1 [Example A-23, (S)-(5,2′,4′-Trifluoro-biphenyl-2-ylmethoxy)-pyrrolidine hydrochloride]
14.2 nM | Fc1ccc(CO[C@H]2CCNC2)c(-c2cccc(F)c2F)c1 [Example A-24, (S)-(5,2′,3′-Trifluoro-biphenyl-2-ylmethoxy)-pyrrolidine hydrochloride]
26.2 nM | Fc1ccc(CO[C@H]2CCNC2)c(-c2ccccc2F)c1 [Example A-25, (S)-(5,2′-Difluoro-biphenyl-2-ylmethoxy)-pyrrolidine hydrochloride]
30.6 nM | Fc1cccc(-c2c(F)cccc2CO[C@H]2CCNC2)c1F [Example A-26, (S)-3-(6,2′,3′-Trifluoro-biphenyl-2-ylmethoxy)-pyrrolidine hydrochloride]
46.3 nM | Fc1cc(CO[C@H]2CCNC2)c(-c2cccc(F)c2F)cc1F [Example A-31, (3S)-3-[(2′,3′,4,5-tetrafluorobiphenyl-2-yl)methoxy]pyrrolidine fumarate]
23.9 nM | Fc1ccccc1-c1c(F)cccc1CO[C@H]1CCNC1 [Example A-32, (3S)-3-[(2′,6-difluorobiphenyl-2-yl)methoxy]pyrrolidine hydrochloride]
25.7 nM | Fc1cccc(-c2cccc(F)c2CO[C@H]2CCNC2)c1F [Example A-33, (3S)-3-[(2′,3,3′-trifluorobiphenyl-2-yl)methoxy]pyrrolidine fumarate]
23.3 nM | Fc1ccc(-c2c(F)cccc2CO[C@H]2CCNC2)c(F)c1 [Example A-34, (3S)-3-[(2′,4′,6-trifluorobiphenyl-2-yl)methoxy]pyrrolidine hydrochloride]
1020 nM | Fc1ccc(-c2ncccc2CO[C@H]2CCNC2)c(F)c1 [Example B-1, (S)-2-(2,4-Difluoro-phenyl)-3-(pyrrolidin-3-yloxymethyl)-pyridine fumarate]
382 nM | Fc1ccc(F)c(-c2cccnc2CO[C@H]2CCNC2)c1 [Example C-1, (S)-3-(2,5-Difluoro-phenyl)-2-(pyrrolidin-3-yloxymethyl)-pyridine fumarate]

Further lines, the compound ahead of its results:

SMILES | Ki
Cc1ccc(-c2ccccc2CO[C@H]2CCNC2)cc1 [Example A-2, (S)-3-(4′-Methyl-biphenyl-2-ylmethoxy)-pyrrolidine hydrochloride] | 7.6 nM
c1ccc(-c2ccccc2CO[C@H]2CCNC2)cc1 [Example A-7, (S)-3-(Biphenyl-2-ylmethoxy)-pyrrolidine hydrochloride] | 13.5 nM
COc1ccc(-c2ccccc2CO[C@H]2CCNC2)cc1C [Example A-10, (S)-3-(4′-Methoxy-3′-methyl-biphenyl-2-ylmethoxy)-pyrrolidine fumarate] | 22.8 nM
Fc1ccc(-c2ccccc2CO[C@H]2CCNC2)cc1Cl [Example A-11, (S)-3-(3′-Chloro-4′-fluoro-biphenyl-2-ylmethoxy)-pyrrolidine hydrochloride] | 39.2 nM
c1ccc(-c2ccccc2CO[C@@H]2CCNC2)cc1 [Example A-14, (R)-3-(Biphenyl-2-ylmethoxy)-pyrrolidine hydrochloride] | 67.5 nM
CC(C)Oc1ccccc1-c1ccccc1CO[C@H]1CCNC1 [Example A-19, (S)-3-(2′-Isopropoxy-biphenyl-2-ylmethoxy)-pyrrolidine fumarate] | 111 nM
CSc1ccccc1-c1ccccc1CO[C@H]1CCNC1 [Example A-21, (S)-3-(2′-Methylsulfanyl-biphenyl-2-ylmethoxy)-pyrrolidine hydrochloride] | 610 nM
COc1ccc(F)cc1-c1ccccc1CO[C@H]1CCNC1 [Example A-22, fumarate] | ≥ 10000 nM
c1cncc(-c2ccccc2CO[C@H]2CCNC2)c1 [Example A-27, (S)-3-[2-(Pyrrolidin-3-yloxymethyl)-phenyl]-pyridine hydrochloride] | 2210 nM
c1ccc(-c2ccncc2)c(CO[C@H]2CCNC2)c1 [Example A-28, (S)-4-[2-(Pyrrolidin-3-yloxymethyl)-phenyl]-pyridine hydrochloride] | 4860 nM
COc1ccc(-c2ccccc2CO[C@H]2CCNC2)cn1 [Example A-29, (S)-2-Methoxy-5-[2-(pyrrolidin-3-yloxymethyl)-phenyl]-pyridine fumarate] | 2910 nM
Fc1ccccc1-c1cccc(F)c1CO[C@H]1CCNC1 [Example A-30, (3S)-3-[(2′,3-difluorobiphenyl-2-yl)methoxy]pyrrolidine fumarate] | 80.1 nM
Fc1cccc(-c2ncccc2CO[C@H]2CCNC2)c1F [Example B-2, (S)-2-(2,3-Difluoro-phenyl)-3-(pyrrolidin-3-yloxymethyl)-pyridine fumarate] | 206 nM
Fc1ccc(-c2ncccc2CO[C@H]2CCNC2)cc1F [Example B-3, (S)-2-(3,4-Difluoro-phenyl)-3-(pyrrolidin-3-yloxymethyl)-pyridine fumarate] | 310 nM
Fc1cccc(-c2cccnc2CO[C@H]2CCNC2)c1F [Example C-2, (S)-3-(2,3-Difluoro-phenyl)-2-(pyrrolidin-3-yloxymethyl)-pyridine fumarate] | 845 nM
CCOc1cccc(-c2ccccc2CO[C@H]2CCNC2)c1 [Example D-1, (S)-3-(3′-Ethoxy-biphenyl-2-ylmethoxy)-pyrrolidine] | 4.84 nM
